Reference: publication PMC10747034 (Tropical Medicine and Infectious Disease, 2023)
Several values for one entry are separate records, joined by “and”; a condition that tells them apart may be missing. Equal entries are not always repeated. Entries after “also recorded” stand apart in the source; their conditions may differ. Where two headings read alike, the source gives them in different places.

Tests used:
[1] = test system: Toxoplasma gondii tachyzoites of RH strain; test: Forty-eight-hour antiproliferative assay; assay type: cell-based; conditions: 48 h; for inhibition at 0.25 µM / inhibition at 1 µM: read-out: Inhibition of parasite proliferation
Procedure: NDHF cell monolayers were plated in a 24-well tissue plate containing coverslips, and after confluency was reached, cells were infected with a ratio of 5:1 parasite/host cells with freshly egressed RH strain tachyzoites for two hours. Then, cells were washed twice with phosphate-buffered saline, pH 7.4 (PBS), to remove non-invaded parasites and incubated with a complete medium for two hours more. After this time, infected cells were treated for 48 h with different concentrations of selected compounds, based on the IC50 obtained through plaque assay. At the end of the experiment, the cells were washed with PBS, stained with Bouin for 10 min, washed with 70% alcohol, and stained with solutions 2 and 3 of the Fast Panoptic kit for 60 and 10 s, respectively. Two hundred infected cells were quantified per slide using the 100× objective of a Leica DM500 optical microscope, stratifying the number of infected and non-infected cells and the amount of tachyzoite in each infected cell. The proliferation index is the ratio of the product of the total amount of tachyzoites and the percentage of infected cells by the total number of cells.

[2] = test system: Toxoplasma gondii tachyzoites of RH strain; test: Plaque assay (7 days) in NHDF monolayers infected with T. gondii; assay type: cell-based; conditions: 7 days of treatment, two independent experiments
Procedure: After NHDF reached confluency, each well was replaced with fresh medium containing one compound at a concentration of 1 µM, and then infected with 1000 newly egressed tachyzoites from RH strain [29]. Screening at 1 μM is recommended by MMV. As a control, infected cells were incubated with complete medium and 0.01% DMSO [29]. The plates were then kept in an incubator at 37 °C in a humid atmosphere with 5% CO2 for seven days. After this time, cultures were fixed with 70% ethanol and stained with crystal violet to observe the plates.
For that, 12-well plates containing a monolayer of NHDF were infected with 600 tachyzoites of the RH strain of T. gondii and treated with different concentrations for seven days. IC50s of compounds were calculated using GraphPad Prism 8.0 software.
Data were analyzed using GraphPad Prim 8.0 software. IC50 and CC50 calculations were performed by fitting the values of proliferation/viability in percentage to a non-linear curve followed by dose–response inhibition analysis through log(inhibitor) vs. normalized response.

NHDF cells = test: Cytotoxicity assay (MTS, 7 days); assay type: cell-based, Human; conditions: for CC50: MTS, read-out: Cytotoxicity against NHDF (7 Days) CC50
Procedure: (§1) For that, 96-well tissue plates containing NHDF cells were treated with different concentrations of compounds up to 10 µM for seven days. Control cells were incubated with 0.5% DMSO. At the end of the treatment, cell viability was then analyzed through the colorimetric method of MTS (Promega, Madison, WI, USA). […] Data were analyzed using GraphPad Prim 8.0 software. IC50 and CC50 calculations were performed by fitting the values of proliferation/viability in percentage to a non-linear curve followed by dose–response inhibition analysis through log(inhibitor) vs. normalized response.

[3] = Cytotoxicity assay (MTS, 7 days); assay type: cell-based, Human; conditions: human, NHDF cells, MTS, concentrations up to 10 µM, two independent experiments, read-out: Cytotoxicity against NHDF (7 Days) CC50
Procedure: as §1

[4] = test system: T. gondii tachyzoites (apicoplast); test: Immunofluorescence assay of apicoplast loss (anti-CPN60); assay type: cell-based, Toxoplasma gondii; conditions: 1 µM, 24 h
Procedure: Anti-CPN60 (kindly provided by Dr. Boris […], University of Georgia, USA) was used to label the apicoplast luminal protein CPN60 at a dilution of 1:2000. DAPI (5 μg/mL; Sigma-Aldrich) was used to label the DNA. After labeling, the coverslips were mounted onto slides using Prolong gold (Life Technologies, Eugene, OR, USA), and samples were examined on an Invitrogen EVOS fluorescence microscope.

T. gondii tachyzoites = test: Ultrastructural analysis through transmission electron microscopy; assay type: cell-based, Toxoplasma gondii; conditions: 48 h
Procedure: T-25 cm^2 flasks for cell culture with confluent monolayers of NHDF were infected with freshly egressed tachyzoite in a ratio of 10:1 parasite per cell for 2 h of interaction. The flasks were washed and fresh RPMI was added for another two hours. After this, the compounds were added and infected cells were treated for 48 h. The sample fixation and processing for microscopy were performed as previously described.

[5] = test system: Toxoplasma gondii tachyzoites of RH strain; test: Post-treatment recovery (washout) assay; assay type: cell-based; conditions: 3 days of treatment, 7 days recovery without drug; 0.001 to 1 µM tested
Procedure: NHDF monolayers in 12-well plates were infected with 5000 newly egressed tachyzoites from RH strain and then treated for 3 days with drug concentrations of 0.001 to 1 µM. After treatment, the medium with drugs was removed, and the cells were washed twice and incubated with a fresh medium without drugs for an additional 7 days to allow the remaining parasites (if still viable after treatment) to grow. The plates were then kept in an incubator at 37 °C in a humid atmosphere with 5% CO2 throughout the treatment.

[6] = concentrations up to 10 µM, two independent experiments

Structure (SMILES): CCCCC(CC)CNC(=N)NC(=N)NCCCCCCNC(=N)NC(=N)NCC(CC)CCCC (stereo not shown) [Alexidine]
- inhibition at 0.25 µM ([1]; Toxoplasma gondii, 0.25 µM): ~60%
- IC50 ([2]; Toxoplasma gondii, NHDF, 168 h): 272 ± 38.4 nM
- SI (Selectivity Index, CC50 NHDF cells/IC50 T. gondii) (NHDF cells): 6
- CC50 at 7 days [3]: 1.63 µM

Structure (SMILES): Cc1cc(C2CCCCC2)n(O)c(=O)c1 [Ciclopirox]
- IC50 ([2]; Toxoplasma gondii, NHDF, 168 h): 497 ± 18.1 nM
- SI (Selectivity Index, CC50 NHDF cells/IC50 T. gondii) (NHDF cells): 8
- CC50 at 7 days [3]: 4 µM

Structure (SMILES): CCC[C@@H]1C[C@@H](C(=O)N[C@@H]([C@H]2O[C@H](SC)[C@H](O)[C@@H](O)[C@H]2O)[C@H](C)Cl)N(C)C1 [Clindamycin]
- Frequency of vacuoles (4 or 8 parasites) with at least one parasite presenting apicoplast loss [4]: higher than 30%

Structure (SMILES): COc1cc(NS(=O)(=O)c2ccc(C)cc2)c2ncccc2c1 [DNDI1417411]
- Inhibition of parasite proliferation ([1]; 1 µM): more than 60%
- IC50 [2]: 485 ± 43.8 nM
- CC50 (NHDF cells; [6]): 14.5 µM

Structure (SMILES): CC[C@H]1OC(=O)[C@H](C)[C@@H](O[C@H]2C[C@@](C)(OC)[C@@H](O)[C@H](C)O2)[C@H](C)[C@@H](O[C@@H]2O[C@H](C)C[C@H](N(C)C)[C@H]2O)[C@](C)(O)C[C@@H](C)C(=O)[C@H](C)[C@@H](O)[C@]1(C)O [Erythromycin]
- IC50 [2]: 131 ± 15.8 nM
- IC50 ([2]; Toxoplasma gondii, NHDF, 168 h): ≤ 200 nM
- SI (Selectivity Index, CC50 NHDF cells/IC50 T. gondii) (NHDF cells): 91
- CC50 at 7 days [3]: 11.9 µM

Structure (SMILES): CC1=C(/C=C/C(C)=C/C=C/C(C)=C/C(=O)Nc2ccc(O)cc2)C(C)(C)CCC1 [Fenretinide]
- IC50 ([2]; Toxoplasma gondii, NHDF, 168 h): 918 ± 29.1 nM
- SI (Selectivity Index, CC50 NHDF cells/IC50 T. gondii) (NHDF cells): 29
- CC50 at 7 days [3]: 26.7 µM

Structure (SMILES): Oc1c(C(Nc2nc3ccccc3s2)c2ccc(OC(F)F)cc2)ccc2cccnc12 (stereo not shown) [MMV019724]
- Ultrastructural alterations on tachyzoites (TEM) (T. gondii tachyzoites; 0.25 µM): affected the parasite cell division process; also recorded: induced a lytic effect in the parasite
- Inhibition of parasite proliferation ([1]; 0.25 µM): more than 80%
- Inhibition of parasite proliferation ([1]; 1 µM): 99%
- IC50 [2]: ≤ 200 nM and 109 nM
- CC50 (NHDF cells; [6]): 2.5 µM

Structure (SMILES): Oc1cccc(C(Nc2nccs2)c2ccc3cccnc3c2O)c1 (stereo not shown) [MMV642550]
- Ultrastructural alterations on tachyzoites (TEM) (T. gondii tachyzoites; 1 µM): affected the Golgi complex (GC) (Figure 4E) and induced extensive vacuolization inside the parasite body
- Inhibition of T. gondii proliferation ([1]; 0.5 µM): around 75%
- IC50 [2]: 320 ± 17 nM
- CC50 (NHDF cells; [6]): 6.73 µM

Structure (SMILES): O=S(=O)(Nc1cccc2cccnc12)c1ccccc1 [MMV1578890]
- IC50 [2]: 1100 ± 0.1 nM
- CC50 (NHDF cells; [6]): 10.3 µM

Structure (SMILES): CCc1nc(N)nc(N)c1C#CC(C)c1cc(OC)cc(-c2ccncc2)c1 (stereo not shown) [MMV1580844]
- Ultrastructural alterations on tachyzoites (TEM) (T. gondii tachyzoites; 3 nM): caused parasite lysis; also recorded: disrupted the parasite division process
- Inhibition of tachyzoite proliferation ([1]; 7 nM): more than 90%
- Inhibition of T. gondii proliferation ([1]; concentrations close to 2 nM): approximately 50%
- Concentrations at which monolayer lysis and plaque areas were seen after washout [5]: 0.001 to 0.01 µM
- CC50 (NHDF cells; [6]): 11.2 µM

Structure (SMILES): Fc1ccc(-c2nc(-c3c[nH]c4ccc(Br)cc34)[nH]c2-c2ccc(F)cc2)cc1 [MMV1593537]
- IC50 [2]: 940 ± 38.6 nM
- CC50 (NHDF cells; [6]): 5.66 µM

Structure (SMILES): Nc1nc(Nc2ccc3nc(-c4ccc(F)cc4)cc(N)c3c2)cc(-c2ccccc2)n1 [MMV1593541]
- Ultrastructural alterations on tachyzoites (TEM) (T. gondii tachyzoites; 0.5 µM): induced the formation of extensive cytoplasm vacuolization
- Inhibition of T. gondii proliferation ([1]; 125 nM): more than 50%
- Inhibition of parasite proliferation ([1]; 0.25 µM): around 60%
- CC50 (NHDF cells; [6]): 2.54 µM

Structure (SMILES): Cn1cc(NC(=O)c2cc(NC(=O)c3ccc(/C=C/c4cnc5ccccc5c4)cc3)cn2C)cc1C(=O)NCCN1CCOCC1 [MMV1634391]
- Frequency of vacuoles (4 or 8 parasites) with at least one parasite presenting apicoplast loss [4]: higher than 30%
- CC50 (NHDF cells; ND = 100% viability up to 10 µM): > 10 µM

Structure (SMILES): Cc1nc2ccc(Oc3ccccc3)cc2c2c1CCN2CCc1ccccc1 [MMV1634399]
- IC50 [2]: 920.3 ± 0.1 nM
- CC50 (NHDF cells; [6]): 24.1 µM

Structure (SMILES): COc1ccc2sc3c(c2c1)NC(C)CNC3=O (stereo not shown) [MMV1782115]
- Inhibition of parasite proliferation ([1]; 1 µM): more than 60%
- IC50 [2]: ≤ 200 nM and 161 nM
- CC50 (NHDF cells; [6]): 9.43 µM

Structure (SMILES): CCc1nc(N)nc(N)c1-c1ccc(Cl)cc1 [PYR, pyrimethamine]
- Concentration that abolished parasite proliferation recovery (no plaques) [5]: > 1 µM
- Concentrations at which monolayer lysis and plaque areas were seen after washout [5]: all concentrations

Structure (SMILES): C=C[C@]1(C)C[C@@H](OC(=O)CS[C@@H]2C[C@H]3CC[C@@H](C2)N3C)[C@]2(C)[C@H](C)CC[C@]3(CCC(=O)[C@H]32)[C@@H](C)[C@@H]1O [Retapamulin]
- Inhibition of parasite proliferation ([1]; 1 µM): more than 50%
- inhibition at 1 µM ([1]; Toxoplasma gondii, 1 µM): > 60%
- Frequency of vacuoles (4 or 8 parasites) with at least one parasite presenting apicoplast loss [4]: higher than 30%
- IC50 [2]: < 100 nM
- SI (Selectivity Index, CC50 NHDF cells/IC50 T. gondii) (NHDF cells): 270
- CC50 at 7 days [3]: 9.98 µM

Structure (SMILES): COc1cc(C)c2c(Oc3cccc(C(F)(F)F)c3)c(OC)cc(NC(C)CCCN)c2n1 (stereo not shown) [Tafenoquine]
- IC50 ([2]; Toxoplasma gondii, NHDF, 168 h): 896.9 ± 0.1 nM
- SI (Selectivity Index, CC50 NHDF cells/IC50 T. gondii) (NHDF cells): 18
- CC50 at 7 days [3]: 16.3 µM

Structure (SMILES): NC(=S)N/N=C/c1ncccc1N [Triapine]
- inhibition at 1 µM ([1]; Toxoplasma gondii, 1 µM): > 60%
- IC50 ([2]; Toxoplasma gondii, NHDF, 168 h): 717.7 ± 0.1 nM
- SI (Selectivity Index, CC50 NHDF cells/IC50 T. gondii) (NHDF cells): 4
- CC50 at 7 days [3]: 2.79 µM

Structure (SMILES): COc1cc(NCc2ccc3nc(N)nc(N)c3c2C)cc(OC)c1OC [Trimetrexate]
- inhibition at 0.015 µM ([1]; Toxoplasma gondii, 15 nM, read-out: Inhibition of tachyzoite proliferation): > 90%
- Inhibition of T. gondii proliferation ([1]; concentrations close to 2 nM): approximately 50%
- Concentrations at which monolayer lysis and plaque areas were seen after washout [5]: 0.001 to 0.1 µM
- SI (Selectivity Index, CC50 NHDF cells/IC50 T. gondii) (NHDF cells): 3046
- CC50 at 7 days [3]: 11.9 µM

Structure (SMILES): O=C(/C=C\n1cnc(-c2cc(C(F)(F)F)cc(C(F)(F)F)c2)n1)NNc1ccccn1 [Verdinexor]
- Ultrastructural alterations on tachyzoites (TEM) (T. gondii tachyzoites; 0.25 µM): caused a drastic effect on the division of the parasite; also recorded: caused extensive vacuolization; also recorded: induced mitochondrial alterations
- inhibition at 0.25 µM ([1]; Toxoplasma gondii, 0.25 µM): > 80%
- inhibition at 1 µM ([1]; Toxoplasma gondii, 1 µM): 99%
- IC50 [2]: 70 ± 24.4 nM
- IC50 ([2]; listed as verdinexor): ≤ 200 nM
- CC50 at 7 days [3]: 2.86 µM
